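Each compound was tested at five concentrations against cells in 96-well plates for 48 hours. GI50: concentration for 50% inhibition of growth.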 Activity calls are given as the source filed them. Cut-off read from the data, not from the text of the source: active = GI50 up to about 1.1 µM and inactive = higher.
How the values were obtained:
Assay in all cases: NCI tumour cell line growth inhibition, 48 h
IGROV-1 = system: IGROV-1
KM-20L2 = system: KM-20L2
UO-31 = system: UO-31
OVCAR-8 = system: OVCAR-8
SW-620 = system: SW-620
K562 = system: K562
CCRF-CEM = system: CCRF-CEM
SF-268 = system: SF-268
DLD-1 = system: DLD-1
SF-539 = system: SF-539
HOP-92 = system: HOP-92
SNB-75 = system: SNB-75
NCI-H23 = system: NCI-H23
SN12C = system: SN12C
LOX IMVI = system: LOX IMVI
HCT-15 = system: HCT-15
LXFL 529 = system: LXFL 529
SK-MEL-2 = system: SK-MEL-2
HOP-18 = system: HOP-18
A549 = system: A549
NCI-H522 = system: NCI-H522
RXF 393 = system: RXF 393
OVCAR-5 = system: OVCAR-5
Malme-3M = system: Malme-3M
OVCAR-4 = system: OVCAR-4
DMS-114 = system: DMS-114
OVCAR-3 = system: OVCAR-3
U-251 = system: U-251
UACC-257 = system: UACC-257
HOP-62 = system: HOP-62
NCI-H460 = system: NCI-H460
HT-29 = system: HT-29
CAKI-1 = system: CAKI-1
M14 = system: M14
RPMI-8226 = system: RPMI-8226
HCC 2998 = system: HCC 2998
HL-60 = system: HL-60
786-0 = system: 786-0
SK-MEL-28 = system: SK-MEL-28
SK-OV-3 = system: SK-OV-3
UACC-62 = system: UACC-62
EKVX = system: EKVX
MOLT-4 = system: MOLT-4
DMS-273 = system: DMS-273
SF-295 = system: SF-295
M19-MEL = system: M19-MEL
KM12 = system: KM12
SK-MEL-5 = system: SK-MEL-5
ACHN = system: ACHN
TK-10 = system: TK-10
COLO 205 = system: COLO 205
NCI-H226 = system: NCI-H226
SNB-19 = system: SNB-19
SR = system: SR
SNB-78 = system: SNB-78
HCT-116 = system: HCT-116
A498 = system: A498

Question: How did the GI50 (IGROV-1) turn out when `CN(C)C(=C1C(Br)=C(Br)C(Br)=C1Br)N(C)C` was run?
Answer: > 100 µM (inactive)

Question: What about the GI50 (KM-20L2) of the same compound?
Answer: > 100 µM (inactive)

Question: What about the GI50 (UO-31) of the same compound?
Answer: > 100 µM (inactive)

Question: And the GI50 (OVCAR-8)?
Answer: > 100 µM (inactive)

Question: And the GI50 (SW-620)?
Answer: 83.8 µM (inactive)

Question: And the GI50 (K562)?
Answer: 30.4 µM (inactive)

Question: And the GI50 (CCRF-CEM)?
Answer: 26.3 µM (inactive)

Question: What about the GI50 (SF-268) of the same compound?
Answer: > 100 µM (inactive)

Question: And the GI50 (DLD-1)?
Answer: > 100 µM (inactive)

Question: And the GI50 (SF-539)?
Answer: > 100 µM (inactive)

Question: And the GI50 (HOP-92)?
Answer: > 100 µM (inactive)

Question: What about the GI50 (SNB-75) of the same compound?
Answer: 38.6 µM (inactive)

Question: And the GI50 (NCI-H23)?
Answer: > 100 µM (inactive)

Question: And the GI50 (SN12C)?
Answer: > 100 µM (inactive)

Question: And the GI50 (LOX IMVI)?
Answer: 21.5 µM (inactive)

Question: And the GI50 (HCT-15)?
Answer: > 100 µM

Question: What about the GI50 (LXFL 529) of the same compound?
Answer: 75 µM (inactive)

Question: And the GI50 (SK-MEL-2)?
Answer: > 100 µM (inactive)

Question: And the GI50 (HOP-18)?
Answer: > 100 µM (inactive)

Question: What about the GI50 (A549) of the same compound?
Answer: > 100 µM (inactive)

Question: What about the GI50 (NCI-H522) of the same compound?
Answer: 17.5 µM (inactive)

Question: What about the GI50 (RXF 393) of the same compound?
Answer: > 100 µM (inactive)

Question: And the GI50 (OVCAR-5)?
Answer: > 100 µM (inactive)

Question: What about the GI50 (Malme-3M) of the same compound?
Answer: > 100 µM (inactive)

Question: And the GI50 (OVCAR-4)?
Answer: > 100 µM (inactive)

Question: And the GI50 (DMS-114)?
Answer: > 100 µM (inactive)

Question: What about the GI50 (OVCAR-3) of the same compound?
Answer: > 100 µM (inactive)

Question: What about the GI50 (U-251) of the same compound?
Answer: > 100 µM (inactive)

Question: And the GI50 (UACC-257)?
Answer: > 100 µM (inactive)

Question: And the GI50 (HOP-62)?
Answer: > 100 µM (inactive)

Question: What about the GI50 (NCI-H460) of the same compound?
Answer: > 100 µM (inactive)

Question: What about the GI50 (HT-29) of the same compound?
Answer: > 100 µM (inactive)

Question: What about the GI50 (CAKI-1) of the same compound?
Answer: > 100 µM (inactive)

Question: And the GI50 (M14)?
Answer: > 100 µM (inactive)

Question: And the GI50 (RPMI-8226)?
Answer: 22.7 µM (inactive)

Question: What about the GI50 (HCC 2998) of the same compound?
Answer: > 100 µM (inactive)

Question: What about the GI50 (HL-60) of the same compound?
Answer: 46.3 µM (inactive)

Question: And the GI50 (786-0)?
Answer: > 100 µM (inactive)

Question: What about the GI50 (SK-MEL-28) of the same compound?
Answer: > 100 µM (inactive)

Question: What about the GI50 (SK-OV-3) of the same compound?
Answer: > 100 µM (inactive)

Question: What about the GI50 (UACC-62) of the same compound?
Answer: > 100 µM (inactive)

Question: And the GI50 (EKVX)?
Answer: > 100 µM (inactive)

Question: What about the GI50 (MOLT-4) of the same compound?
Answer: > 100 µM (inactive)

Question: And the GI50 (DMS-273)?
Answer: > 100 µM (inactive)

Question: What about the GI50 (SF-295) of the same compound?
Answer: > 100 µM (inactive)

Question: What about the GI50 (M19-MEL) of the same compound?
Answer: > 100 µM (inactive)

Question: What about the GI50 (KM12) of the same compound?
Answer: > 100 µM (inactive)

Question: What about the GI50 (SK-MEL-5) of the same compound?
Answer: > 100 µM (inactive)

Question: What about the GI50 (ACHN) of the same compound?
Answer: > 100 µM (inactive)

Question: What about the GI50 (TK-10) of the same compound?
Answer: > 100 µM (inactive)

Question: And the GI50 (COLO 205)?
Answer: > 100 µM (inactive)

Question: `CCCCCCCCCCCC(=O)OCC1OC(n2cc(F)c(=O)[nH]c2=O)C(N)C(O)C1O` (stereo unspecified) was tested. Which GI50 (IGROV-1) did it give?
Answer: > 100 µM (inactive)

Question: And the GI50 (KM-20L2)?
Answer: 91.4 µM (inactive)

Question: What about the GI50 (UO-31) of the same compound?
Answer: > 100 µM (inactive)

Question: What about the GI50 (OVCAR-8) of the same compound?
Answer: 73.5 µM (inactive)

Question: And the GI50 (SW-620)?
Answer: > 100 µM (inactive)

Question: And the GI50 (K562)?
Answer: 32.2 µM (inactive)

Question: And the GI50 (CCRF-CEM)?
Answer: 31.2 µM (inactive)

Question: What about the GI50 (NCI-H226) of the same compound?
Answer: > 100 µM (inactive)

Question: And the GI50 (SF-268)?
Answer: > 100 µM (inactive)

Question: And the GI50 (DLD-1)?
Answer: 71.8 µM (inactive)

Question: What about the GI50 (SF-539) of the same compound?
Answer: > 100 µM (inactive)

Question: What about the GI50 (HOP-92) of the same compound?
Answer: > 100 µM (inactive)

Question: And the GI50 (SNB-75)?
Answer: > 100 µM (inactive)

Question: What about the GI50 (NCI-H23) of the same compound?
Answer: 84.7 µM (inactive)

Question: What about the GI50 (SN12C) of the same compound?
Answer: > 100 µM (inactive)

Question: What about the GI50 (HCT-15) of the same compound?
Answer: > 100 µM

Question: And the GI50 (LXFL 529)?
Answer: > 100 µM (inactive)

Question: What about the GI50 (SK-MEL-2) of the same compound?
Answer: > 100 µM (inactive)

Question: What about the GI50 (HOP-18) of the same compound?
Answer: 88.9 µM (inactive)

Question: What about the GI50 (A549) of the same compound?
Answer: > 100 µM (inactive)

Question: And the GI50 (NCI-H522)?
Answer: 75.3 µM (inactive)

Question: What about the GI50 (RXF 393) of the same compound?
Answer: > 100 µM (inactive)

Question: And the GI50 (OVCAR-5)?
Answer: 11.5 µM (inactive)

Question: And the GI50 (Malme-3M)?
Answer: > 100 µM (inactive)

Question: What about the GI50 (OVCAR-4) of the same compound?
Answer: > 100 µM (inactive)

Question: What about the GI50 (DMS-114) of the same compound?
Answer: > 100 µM (inactive)

Question: And the GI50 (OVCAR-3)?
Answer: > 100 µM (inactive)

Question: And the GI50 (U-251)?
Answer: 79.1 µM (inactive)

Question: What about the GI50 (UACC-257) of the same compound?
Answer: > 100 µM (inactive)

Question: And the GI50 (HOP-62)?
Answer: > 100 µM (inactive)

Question: And the GI50 (NCI-H460)?
Answer: 78.9 µM (inactive)

Question: And the GI50 (HT-29)?
Answer: 55.3 µM (inactive)

Question: What about the GI50 (CAKI-1) of the same compound?
Answer: 49 µM (inactive)

Question: What about the GI50 (M14) of the same compound?
Answer: > 100 µM (inactive)

Question: And the GI50 (SNB-19)?
Answer: 57.9 µM (inactive)

Question: What about the GI50 (RPMI-8226) of the same compound?
Answer: > 100 µM (inactive)

Question: And the GI50 (HCC 2998)?
Answer: > 100 µM (inactive)

Question: And the GI50 (HL-60)?
Answer: 38.9 µM (inactive)

Question: What about the GI50 (786-0) of the same compound?
Answer: > 100 µM (inactive)

Question: And the GI50 (SK-MEL-28)?
Answer: > 100 µM (inactive)

Question: What about the GI50 (SK-OV-3) of the same compound?
Answer: > 100 µM (inactive)

Question: And the GI50 (UACC-62)?
Answer: 42 µM (inactive)

Question: And the GI50 (EKVX)?
Answer: > 100 µM (inactive)

Question: And the GI50 (SR)?
Answer: 81.7 µM (inactive)

Question: And the GI50 (SNB-78)?
Answer: > 100 µM (inactive)

Question: And the GI50 (MOLT-4)?
Answer: 36.3 µM (inactive)

Question: And the GI50 (HCT-116)?
Answer: 88.1 µM (inactive)

Question: And the GI50 (DMS-273)?
Answer: > 100 µM (inactive)

Question: What about the GI50 (SF-295) of the same compound?
Answer: > 100 µM (inactive)

Question: And the GI50 (M19-MEL)?
Answer: > 100 µM (inactive)

Question: And the GI50 (KM12)?
Answer: 77.4 µM (inactive)

Question: And the GI50 (SK-MEL-5)?
Answer: > 100 µM (inactive)

Question: What about the GI50 (A498) of the same compound?
Answer: > 100 µM (inactive)

Question: What about the GI50 (ACHN) of the same compound?
Answer: > 100 µM (inactive)

Question: And the GI50 (COLO 205)?
Answer: 60.3 µM (inactive)
